This data set in a line: gradient 5% acetonitrile 3 min, to 50% in 2 min, to 85% in 15 min, held 3 min, 100 µL/min. Particulars: column: Zorbax Extend-C18 2.1 x 50 mm; eluents: water / acetonitrile, 0.1% formic acid. The essentials: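 Pure standards were analyzed in mixtures of ~100 molecules using HPLC coupled to a quadrupole time-of-flight mass spectrometer, in both positive and negative ionization mode. Separation used a Zorbax Extend-C18 column (2.1 × 50 mm, 1.8 μm) at 100 μL/min, with water and acetonitrile each containing 0.1% formic acid. Dead and dwell volumes were 40 μL and 900 μL, and data were collected over 3 months. Retention time was read from computationally picked adduct peaks, each inspected manually.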
The compound `Cc1noc(C)c1S(=O)(=O)N1CCOC(c2ccccc2)C1` (centres undefined) registered an RP-LC retention time of 882 s.

`Cc1ccc(C)c(N2CCN(c3ccnc(SCC(=O)Nc4cc(F)ccc4F)n3)CC2)c1` had an RP-LC retention time of 1120 s.

In turn, `Cc1ncsc1CN1CCC2(CC1)CC(Cc1ccc(F)cc1)CCO2` (centres undefined) gave an RP-LC retention time of 556 s.

In the case of `COc1cccc(CNC(=O)c2cc3c(-c4cccs4)nn(-c4ccccc4)c3n2C)c1`, the RP-LC retention time amounted to 1120 s.

In turn, `CN1C(=O)COc2ccc(-c3csc(NC(=O)c4ccc(F)cc4)n3)cc21` showed an RP-LC retention time of 952 s.

Take `CC(C)NC(=O)N1CCC(c2noc(-c3ccccn3)n2)C1` (centres undefined): the RP-LC retention time came out at 648 s.

For the compound `Cc1ccc2nc(C3CN(C(=O)c4c(-c5ccccc5Cl)noc4C)C3)[nH]c2c1`, the RP-LC retention time was 598 s.

For the compound `c1cncc(-c2noc(CCC3CCCN(C4CCCCC4)C3)n2)c1` (centres undefined), the RP-LC retention time is 624 s.

Compound `O=C(Cn1cc(S(=O)(=O)N2CCOCC2)ccc1=O)N1CCCc2ccccc21` showed an RP-LC retention time of 750 s.

`c1cncc(-c2nc(-c3ccc(-n4ccnc4)nc3)no2)c1` registered an RP-LC retention time of 597 s.

With `COC(=O)c1cnc2nc(C)ccc2c1NCc1ccccc1`, the RP-LC retention time was determined as 658 s.

As for `CCOC(=O)c1c(S(=O)(=O)N2CCC(C(=O)Nc3cc(C)ccn3)CC2)c(C)n(C)c1C`, the RP-LC retention time worked out at 644 s.

For `CNCc1ccc(-c2ccc(F)c(Cl)c2)o1`, the RP-LC retention time was determined as 644 s.

On to `O=C(NCCc1nc2cccnc2n1-c1ccccc1)c1ccccc1`, for which the RP-LC retention time turned out to be 708 s.

On to `O=C(Cn1ccn2nc(-c3ccc(F)cc3)c(CO)c2c1=O)Nc1ccc(Cl)cc1`, for which the RP-LC retention time was 880 s.

Take `O=C(c1ccco1)N1CCCC1c1nc(-c2ccccc2)no1` (centres undefined): the RP-LC retention time amounted to 853 s.

In turn, `CCc1c(C(=O)O)nnn1-c1ccc(C(F)(F)F)cc1` registered an RP-LC retention time of 800 s.

`Cc1ccc(-c2cc3c(=O)n(Cc4noc(CN5CCCCC5C)n4)ccn3n2)cc1C` (centres undefined) returned an RP-LC retention time of 730 s.

For the compound `CSc1ccccc1CN1CCC(CNC(=O)C(=O)Nc2ccon2)CC1`, the RP-LC retention time was determined as 558 s.

Regarding `COCCNC(=O)Nc1nc(-c2ccccc2)c(C(C)=O)s1`, the RP-LC retention time stood at 685 s.

`COc1cccc(NS(=O)(=O)c2cc3c(s2)CCN(C(=O)C2CC2)C3)c1` returned an RP-LC retention time of 801 s.

`Cc1cccc(N2C(=O)CN(Cc3ccccc3F)[C@H]3CS(=O)(=O)C[C@H]32)c1`: the RP-LC retention time was found to be 803 s.

Compound `C[C@@H]1OC(Oc2ccccc2-c2cc(=O)c3c(O)cc(O)c([C@@H]4O[C@H](CO)[C@@H](O)[C@H](O)[C@H]4O)c3o2)[C@H](O)[C@H](O)[C@H]1O` (some centres undefined) yielded an RP-LC retention time of 622 s.

The compound `c1ccc(CCc2nc3nccc(-c4ccc5c(c4)OCCCO5)n3n2)cc1` returned an RP-LC retention time of 984 s.

`CCCCc1nnc2sc(COc3ccc(C)c(C)c3)nn12` gave an RP-LC retention time of 1120 s.

On to `C=CCNc1nc(-c2ccc([N+](=O)[O-])cc2)nc2ccccc12`, for which the RP-LC retention time was determined as 786 s.

Take `CCOC(=O)c1[nH]c(C)c(CCC(=O)N2CCCC(C(=O)N3CCCCCC3)C2)c1C` (centres undefined): the RP-LC retention time is 800 s.

`C[C@H]1CN(S(=O)(=O)c2ccccc2F)C[C@@H]1c1nc(-c2ccncc2)no1` returned an RP-LC retention time of 884 s.

In turn, `COc1ccccc1-c1noc(C2CCCN2C(=O)c2ccccc2C)n1` (centres undefined) yielded an RP-LC retention time of 896 s.

`Cc1nn(C(C)C(=O)N2CCOCC2)c(=O)c2nn(-c3ccccc3)c(C)c12` (centres undefined) had an RP-LC retention time of 684 s.

Compound `CCn1cnc(S(=O)(=O)N2CCCC(C(=O)Nc3ccc(C)c(Cl)c3)C2)c1` (centres undefined) yielded an RP-LC retention time of 861 s.

The compound `Cn1c(=O)c(N2CCC(NC(=O)Nc3ccc(F)cc3F)CC2)nc2ccccc21` gave an RP-LC retention time of 888 s.

`O=C(c1ccn[nH]1)N1CC(F)(F)C[C@H]1c1nc(C2CC2)no1` returned an RP-LC retention time of 712 s.

As for `Cn1cnc2cc(CNC(=O)c3ccc4cc[nH]c4c3)ccc21`, the RP-LC retention time amounted to 603 s.

Turning to `O=C(Cn1nc2n(c(=O)c1=O)CCN2c1ccccc1)Nc1ccc(OC(F)(F)F)cc1`, the RP-LC retention time is 808 s.

In turn, `O=C(c1nccc2ccccc12)N1CCCCC1c1nc(C2CC2)no1` (centres undefined) yielded an RP-LC retention time of 813 s.

Compound `CN(C)S(=O)(=O)c1ccc(-c2nnc(C(=O)NCCN3CCCC3)o2)cc1` yielded an RP-LC retention time of 574 s.

The compound `Cn1c(=O)n(CC(=O)O)c(=O)c2c1nc1n2CCCN1c1ccc(Cl)cc1` yielded an RP-LC retention time of 749 s.

`COc1cc(CNC(=O)C2CCCN(c3nccnc3Sc3ccc(C)cc3)C2)cc(OC)c1` (centres undefined) gave an RP-LC retention time of 1060 s.

`CNC(=O)C1CN(C(=O)Cc2c[nH]c3ccccc23)CC12CCCC2` (centres undefined) yielded an RP-LC retention time of 596 s.

In turn, `COc1ccc(CNC(=O)Cc2nnc(-c3ccsc3)o2)c(OC)c1` yielded an RP-LC retention time of 692 s.

For `CCc1nc2cc(N3CCC(C(=O)N(C)Cc4ccco4)CC3)cnc2nc1CC`, the RP-LC retention time is 755 s.

Consider `Cc1ccc(C(=O)Nc2nc3c(s2)CN(S(=O)(=O)c2ccccc2)CC3)cc1Br`, for which the RP-LC retention time was found to be 1110 s.

For `CCn1cnc2ccc(-c3noc(CCc4c[nH]c5ccccc45)n3)cc21`, the RP-LC retention time is 735 s.

In turn, `Cc1cnc(C(=O)NC2C[C@H]3CC[C@@H](C2)N3C(=O)c2cc(C)n(C)n2)cn1` (some centres undefined) returned an RP-LC retention time of 614 s.

In turn, `COc1ccc(CNC(=O)Cn2cnc3nc(N4CCCC(C(=O)NC5CC5)C4)sc3c2=O)cc1` (centres undefined) came in with an RP-LC retention time of 655 s.

With `COc1ccccc1NC(=O)Cn1cnc2nc(N3CCCC(C(=O)NC4CC4)C3)sc2c1=O` (centres undefined), the RP-LC retention time amounted to 681 s.

The compound `COc1cc(C(=O)Nc2sc3c(c2C(N)=O)CCC(C)C3)cc(OC)c1OC` (centres undefined) came in with an RP-LC retention time of 1010 s.

`CCn1c(=O)c(C)nc2cc(-c3noc(-c4ccc(C)cc4)n3)ccc21` had an RP-LC retention time of 1200 s.

With `COc1ccc(-c2noc(C3(NC(=O)c4cccc(C#N)c4)CCCCC3)n2)cc1`, the RP-LC retention time was 1110 s.

`COc1ccc(-c2nc3cccnc3n2C2CCN(C(=O)NC3CCCC3)C2)cc1` (centres undefined): the RP-LC retention time was 879 s.

`CCN(CC)C(=O)c1ccc2c(c1)nnn2CCNC(=O)Nc1ccc(Br)c(C)c1` showed an RP-LC retention time of 785 s.

`C=CCN1C(=O)COc2ccc(-c3nc(NC(=O)c4ccco4)sc3C)cc21` registered an RP-LC retention time of 903 s.

The compound `O=C(COc1ccccc1[N+](=O)[O-])Nc1nc2c(s1)CCc1ccccc1-2` showed an RP-LC retention time of 1030 s.

As for `CC(C)(C)C(=O)N1CCCC(c2ccnc(-c3cccc(F)c3)n2)C1` (centres undefined), the RP-LC retention time was 1130 s.

The compound `Cc1cccc(C(=O)N2C(C(=O)NCC3CCCO3)COC23CCN(C(=O)C(C)(C)C)CC3)c1` (centres undefined) displayed an RP-LC retention time of 684 s.

For `CCS(=O)(=O)N1CCCN(C(=O)NC(C)C)CC1`, the RP-LC retention time is 613 s.

`CC1CCN(S(=O)(=O)N2CCC(C(=O)N3CCCC(Cc4nncn4CC4CC4)C3)CC2)CC1` (centres undefined): the RP-LC retention time was 678 s.

As to `Cc1cccc(-c2noc(-c3cccnc3N3CCN(c4ccc5c(c4)OCO5)CC3)n2)c1`, the RP-LC retention time worked out at 766 s.

In turn, `CCc1nnc([C@@H]2CC(F)(F)CN2C(=O)c2noc(C)c2COC)o1` came in with an RP-LC retention time of 752 s.

Compound `CS(=O)(=O)N(C1CCOCC1)C1CN(C(=O)c2cc3ccccc3[nH]2)C1` gave an RP-LC retention time of 685 s.

`Cn1c(SCC(=O)Nc2ncccn2)nnc1-c1ccc2c(c1)OCO2` registered an RP-LC retention time of 579 s.

`O=S(=O)(NC1CCCCC1)c1ccc2c(c1)-c1oncc1CO2`: the RP-LC retention time stood at 673 s.

`Cn1nc(C(=O)N2CCCC(C(=O)NC3CC3)C2)c2c1CCN(C(=O)Cc1cccc(F)c1)C2` (centres undefined) showed an RP-LC retention time of 666 s.

`Cc1nc2ccn(Cc3cccnc3)c(=O)c2cc1C(=O)NCCc1c[nH]c2ccccc12` yielded an RP-LC retention time of 626 s.

Compound `CCN1CCN(CCNC(=O)c2cc(-c3ccc(C)cc3)cn2C)CC1` registered an RP-LC retention time of 626 s.

`CCCNC(=O)Nc1ccc(NC(=O)N2CCCC(C(=O)NCC3CCCCC3)C2)cc1` (centres undefined) showed an RP-LC retention time of 776 s.

Compound `O=C(CN1C(=O)CCCc2cc(S(=O)(=O)N3CCCC3)ccc21)NC1CCCCCC1` displayed an RP-LC retention time of 848 s.

Consider `CC1=NC(C)(C)CC2CCC(O)C12` (centres undefined), for which the RP-LC retention time worked out at 683 s.

Turning to `CCn1cc(C)c(C(=O)O)c1CC(=O)NCCN1CCc2ccccc2C1`, the RP-LC retention time turned out to be 629 s.

`COc1ccc(-c2ccc(=O)n(CCNC(=O)c3ccno3)n2)cc1` returned an RP-LC retention time of 628 s.

Consider `O=C(c1ccoc1)N1CCN(c2cc(-c3ccc(Cl)cc3)[nH]n2)CC1`, for which the RP-LC retention time is 774 s.

For the compound `O=C(Nc1ccc(F)c(Cl)c1)c1cc(=O)c(OCc2ccc(F)cc2)co1`, the RP-LC retention time came out at 899 s.

Compound `Cc1noc(-c2cccc(OC3CN(C(=O)c4cnn(C)c4)C3)c2)n1` registered an RP-LC retention time of 700 s.

On to `COC(=O)c1cn(Cc2cc(C)ccc2C)nc1S(=O)(=O)N(C)c1ccc(C)cc1`, for which the RP-LC retention time came out at 1060 s.

On to `CCCOc1nc2ccccc2nc1N1CCCC(C(=O)NC2CCCCC2)C1` (centres undefined), for which the RP-LC retention time turned out to be 1260 s.

On to `CN(Cc1cccn1C)C(=O)NC(C)(C)C`, for which the RP-LC retention time was found to be 805 s.

In the case of `Cc1ccc(C)c(-n2ccn(Cc3nc(-c4ccc(F)cc4)no3)c(=O)c2=O)c1`, the RP-LC retention time worked out at 910 s.

Consider `COc1ccc2c(c1)C=C(C(=O)NCCc1ccccc1)C=CO2`, for which the RP-LC retention time was 959 s.

The record behind these values is the METLIN SMRT retention time set (Domingo-Almenara et al. 2019).
